Measurements taken from PubChem BioAssay AID256 (DTP/NCI, 2004).
Where “and” joins values, the source holds several entries; their conditions need not be identical. Equal values may be shown once. Toxic doses and inconclusive results are not listed. The calls were made as follows: active = survival T/C of 150% or more; inactive = T/C below 125% in these data.

System: CD2F1 mice, L1210 leukemia ip, survival T/C
Test: NCI In Vivo Anticancer Drug Screen. Data for tumor model L1210 Leukemia (intraperitoneal) in CD2F1 (CDF1) mice
Conditions: higher = longer survival
In short: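 In this screen, transplantable tumors were grown in mice given either the compound or its vehicle. Results were expressed as the treated measurement relative to the control measurement.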

[1] = endpoint: mean survival time, dose: 100.0 mg/kg/injection, schedule: Q04DX003 (ip), vehicle: saline with Tween-80
[2] = endpoint: mean survival time, dose: 200.0 mg/kg/injection, schedule: Q04DX003 (ip), vehicle: saline with Tween-80
[3] = endpoint: mean survival time, dose: 400.0 mg/kg/injection, schedule: Q04DX003 (ip), vehicle: saline with Tween-80
[4] = endpoint: mean survival time, dose: 100.0 mg/kg/injection, schedule: Q01DX009 (ip), vehicle: saline with Tween-80
[5] = endpoint: mean survival time, dose: 200.0 mg/kg/injection, schedule: Q01DX009 (ip), vehicle: saline with Tween-80

Measured: T/C

CSc1nc(N)c2c(C(N)=O)cc(=O)n(C3OC(CO)C(O)C3O)c2n1 (stereo not drawn)
inactive: endpoint: mean survival time, dose: 12.5 mg/kg/injection, schedule: Q01DX005 (ip), vehicle: water 96 % of control | endpoint: mean survival time, dose: 25.0 mg/kg/injection, schedule: Q01DX005 (ip), vehicle: water 96 % of control | endpoint: mean survival time, dose: 50.0 mg/kg/injection, schedule: Q01DX005 (ip), vehicle: water 96 % of control | endpoint: mean survival time, dose: 100.0 mg/kg/injection, schedule: Q01DX005 (ip), vehicle: water 93 % of control | endpoint: mean survival time, dose: 200.0 mg/kg/injection, schedule: Q01DX005 (ip), vehicle: water 101 % of control

COc1cc2cc(c1Cl)N1CC(O)C(C)(O)C(=O)NC(C)C(=O)OC(CC1=O)C1(C)OC1C(C)C1CC(O)(NC(=O)O1)C(OC)/C=C\C=C(\C)C2OC (stereo not drawn)
inactive: endpoint: median survival time, dose: 2.0 micrograms/kg/injection, schedule: Q01DX009 (ip), vehicle: distilled water + alcohol 104 % of control | endpoint: median survival time, dose: 4.0 micrograms/kg/injection, schedule: Q01DX009 (ip), vehicle: distilled water + alcohol 104 % of control | endpoint: median survival time, dose: 8.0 micrograms/kg/injection, schedule: Q01DX009 (ip), vehicle: distilled water + alcohol 108 % of control | endpoint: median survival time, dose: 32.0 micrograms/kg/injection, schedule: Q01DX009 (ip), vehicle: distilled water + alcohol 104 % of control

O=C(O)c1ccccc1Nc1ccc(Br)cc1
inactive: endpoint: mean survival time, dose: 25.0 mg/kg/injection, schedule: Q04DX003 (ip), vehicle: saline with Tween-80 95 % of control | endpoint: mean survival time, dose: 50.0 mg/kg/injection, schedule: Q04DX003 (ip), vehicle: saline with Tween-80 104 % of control | [1] 93 % of control and 112 % of control | [2] 98 % of control

C=C1C(=O)C2=CC1CCC(=O)C1(C)CCC(OC(C)=O)C(C)(C)C1CC2O (stereo not drawn)
inactive: endpoint: mean survival time, dose: 3.75 mg/kg/injection, schedule: Q01DX009 (ip), vehicle: Klucel (hydroxypropylcellulose) (HPC) 97 % of control | endpoint: mean survival time, dose: 7.5 mg/kg/injection, schedule: Q01DX009 (ip), vehicle: Klucel (hydroxypropylcellulose) (HPC) 98 % of control and 100 % of control | endpoint: mean survival time, dose: 15.0 mg/kg/injection, schedule: Q01DX009 (ip), vehicle: Klucel (hydroxypropylcellulose) (HPC) 95 % of control and 98 % of control | endpoint: mean survival time, dose: 30.0 mg/kg/injection, schedule: Q01DX009 (ip), vehicle: Klucel (hydroxypropylcellulose) (HPC) 98 % of control and 101 % of control | endpoint: mean survival time, dose: 60.0 mg/kg/injection, schedule: Q01DX009 (ip), vehicle: Klucel (hydroxypropylcellulose) (HPC) 95 % of control and 96 % of control | endpoint: mean survival time, dose: 120.0 mg/kg/injection, schedule: Q01DX009 (ip), vehicle: Klucel (hydroxypropylcellulose) (HPC) 89 % of control

C#CCOC(=O)Nc1cccc(OC(=O)NC)c1
inactive: [1] 99 % of control | [2] 101 % of control | [3] 97 % of control

Cc1ccc(C2OC23CC(C)(C)c2ccccc2C3=O)cc1 (stereo not drawn)
inactive: endpoint: mean survival time, dose: 100.0 mg/kg/injection, schedule: Q01DX009 (ip), vehicle: other 100 % of control | endpoint: mean survival time, dose: 200.0 mg/kg/injection, schedule: Q01DX009 (ip), vehicle: other 96 % of control | endpoint: mean survival time, dose: 400.0 mg/kg/injection, schedule: Q01DX009 (ip), vehicle: other 107 % of control

Clc1ccc(Nc2ccccc2)cc1
inactive: endpoint: mean survival time, dose: 100.0 mg/kg/injection, schedule: Q01DX001 (ip), vehicle: other 90 % of control | endpoint: mean survival time, dose: 200.0 mg/kg/injection, schedule: Q01DX001 (ip), vehicle: other 90 % of control | endpoint: mean survival time, dose: 400.0 mg/kg/injection, schedule: Q01DX001 (ip), vehicle: other 90 % of control

COc1cc2c3cc1Oc1c(OC)c(OC)cc4c1[C@@H](Cc1ccc(O)c(c1)Oc1ccc(cc1)C[C@@H]3N(C)CC2)N(C)CC4
inactive: endpoint: mean survival time, dose: 75.0 mg/kg/injection, schedule: Q01DX001 (ip), vehicle: other 96 % of control | endpoint: mean survival time, dose: 150.0 mg/kg/injection, schedule: Q01DX001 (ip), vehicle: other 100 % of control

Sc1c(Cl)c(Cl)c(Cl)c(Cl)c1Cl
inactive: endpoint: mean survival time, dose: 100.0 mg/kg/injection, schedule: Q04DX002 (ip), vehicle: Klucel (hydroxypropylcellulose) (HPC) 96 % of control | endpoint: mean survival time, dose: 200.0 mg/kg/injection, schedule: Q04DX002 (ip), vehicle: Klucel (hydroxypropylcellulose) (HPC) 90 % of control | endpoint: mean survival time, dose: 400.0 mg/kg/injection, schedule: Q04DX002 (ip), vehicle: Klucel (hydroxypropylcellulose) (HPC) 90 % of control

c1coc(CNc2ncnc3c2ncn3CCCCCCn2cnc3c(NCc4ccco4)ncnc32)c1
inactive: endpoint: mean survival time, dose: 1.0 mg/kg/injection, schedule: Q01DX005 (ip), vehicle: other 95 % of control | endpoint: mean survival time, dose: 2.0 mg/kg/injection, schedule: Q01DX005 (ip), vehicle: other 92 % of control | endpoint: mean survival time, dose: 4.0 mg/kg/injection, schedule: Q01DX005 (ip), vehicle: other 95 % of control | endpoint: mean survival time, dose: 16.0 mg/kg/injection, schedule: Q01DX005 (ip), vehicle: other 95 % of control

CCCCS(=O)(=O)CC(O)c1ccccc1 (stereo not drawn)
inactive: endpoint: mean survival time, dose: 100.0 mg/kg/injection, schedule: Q04DX002 (ip), vehicle: saline with Tween-80 115 % of control | endpoint: mean survival time, dose: 200.0 mg/kg/injection, schedule: Q04DX002 (ip), vehicle: saline with Tween-80 101 % of control | endpoint: mean survival time, dose: 400.0 mg/kg/injection, schedule: Q04DX002 (ip), vehicle: saline with Tween-80 104 % of control

[Br][Pt+2][Br].[NH-]c1cccc(F)c1.[NH-]c1cccc(F)c1
inactive: endpoint: mean survival time, dose: 3.13 mg/kg/injection, schedule: Q04DX003 (ip), vehicle: distilled water + Tween-80 97 % of control | endpoint: mean survival time, dose: 6.25 mg/kg/injection, schedule: Q04DX003 (ip), vehicle: distilled water + Tween-80 103 % of control | endpoint: mean survival time, dose: 12.5 mg/kg/injection, schedule: Q04DX003 (ip), vehicle: distilled water + Tween-80 101 % of control | endpoint: mean survival time, dose: 25.0 mg/kg/injection, schedule: Q04DX003 (ip), vehicle: distilled water + Tween-80 104 % of control | endpoint: mean survival time, dose: 50.0 mg/kg/injection, schedule: Q04DX003 (ip), vehicle: distilled water + Tween-80 109 % of control | endpoint: mean survival time, dose: 100.0 mg/kg/injection, schedule: Q04DX003 (ip), vehicle: distilled water + Tween-80 107 % of control

CC(C)c1nn[nH]n1
inactive: endpoint: median survival time, dose: 50.0 mg/kg/injection, schedule: Q01DX009 (ip), vehicle: saline + alcohol 93 % of control | endpoint: median survival time, dose: 100.0 mg/kg/injection, schedule: Q01DX009 (ip), vehicle: saline + alcohol 91 % of control | endpoint: median survival time, dose: 200.0 mg/kg/injection, schedule: Q01DX009 (ip), vehicle: saline + alcohol 100 % of control | endpoint: median survival time, dose: 400.0 mg/kg/injection, schedule: Q01DX009 (ip), vehicle: saline + alcohol 93 % of control

Nc1nc(NNC(=O)CCCO)c2nonc2n1
inactive: endpoint: mean survival time, dose: 9.4 mg/kg/injection, schedule: Q01DX005 (ip), vehicle: other 97 % of control | endpoint: mean survival time, dose: 18.8 mg/kg/injection, schedule: Q01DX005 (ip), vehicle: other 109 % of control | endpoint: mean survival time, dose: 37.5 mg/kg/injection, schedule: Q01DX005 (ip), vehicle: other 105 % of control | endpoint: mean survival time, dose: 75.0 mg/kg/injection, schedule: Q01DX005 (ip), vehicle: other 105 % of control | endpoint: mean survival time, dose: 150.0 mg/kg/injection, schedule: Q01DX005 (ip), vehicle: other 105 % of control

C[N+](C)(C)/N=C/c1ccc(Cl)cc1
inactive: endpoint: mean survival time, dose: 50.0 mg/kg/injection, schedule: Q04DX002 (ip), vehicle: saline with Tween-80 93 % of control

COc1cc(OC)c(NC(=O)Oc2ccc(C(C)(C)C)cc2Br)cc1Cl
inactive: endpoint: mean survival time, dose: 12.5 mg/kg/injection, schedule: Q01DX009 (ip), vehicle: saline with Tween-80 97 % of control | endpoint: mean survival time, dose: 25.0 mg/kg/injection, schedule: Q01DX009 (ip), vehicle: saline with Tween-80 102 % of control | endpoint: mean survival time, dose: 50.0 mg/kg/injection, schedule: Q01DX009 (ip), vehicle: saline with Tween-80 94 % of control | [4] 93 % of control | [5] 86 % of control

CC(=O)Nc1nc(C)c(S(=O)(=O)O)s1
inactive: endpoint: mean survival time, dose: 75.0 mg/kg/injection, schedule: Q01DX001 (ip), vehicle: saline 101 % of control | endpoint: mean survival time, dose: 150.0 mg/kg/injection, schedule: Q01DX001 (ip), vehicle: saline 93 % of control | endpoint: mean survival time, dose: 300.0 mg/kg/injection, schedule: Q01DX001 (ip), vehicle: saline 90 % of control

CCCCCCCCCCCCCC(CCCCCCCCCC)CCCCCCCCCC
inactive: endpoint: mean survival time, dose: 100.0 mg/kg/injection, schedule: Q01DX001 (ip), vehicle: saline with Tween-80 98 % of control | endpoint: mean survival time, dose: 200.0 mg/kg/injection, schedule: Q01DX001 (ip), vehicle: saline with Tween-80 103 % of control | endpoint: mean survival time, dose: 400.0 mg/kg/injection, schedule: Q01DX001 (ip), vehicle: saline with Tween-80 104 % of control

C/C(=N/O)c1ccc(F)cc1
inactive: [4] 100 % of control | [1] 94 % of control and 97 % of control | [5] 93 % of control and 95 % of control | [2] 94 % of control | endpoint: mean survival time, dose: 400.0 mg/kg/injection, schedule: Q01DX009 (ip), vehicle: saline with Tween-80 94 % of control and 102 % of control | [3] 89 % of control and 96 % of control
